Laboratory results as given in patent publication US20150313892A1, “PHARMACEUTICAL COMPOSITIONS FOR TREATING PAIN ASSOCIATED WITH DYSMENORRHEA” (priority 2014, published 2015).
Read-outs that look alike come from different tables or passages of the source.

Key:
α2δ = conditions: read-out: α2δ Binding; cited from earlier work
[1] = test system: cellular uptake of dopamine, noradrenaline, or serotonin; conditions: cited from earlier work
[2] = cited from earlier work
[3] = test system: transient K^+ channels in hippocampal neurons; conditions: read-out: IC50, inhibition of transient K+ channels; cited from earlier work
κ-opioid = κ-opioid (Homo sapiens, UniProt P41145); conditions: read-out: Binding Constant Ki, κ-opioid; cited from earlier work
NE reuptake = NE reuptake (Homo sapiens, UniProt P23975)
δ-opioid = δ-opioid (Homo sapiens, UniProt P41143); conditions: read-out: Binding Constant Ki, δ-opioid; cited from earlier work
[4] = in vivo, po; cited from earlier work
[5] = test system: patients with diabetic neuropathy and fibromyalgia; experiment: Pain relief in diabetic neuropathy and fibromyalgia patients; conditions: 400 mg per day, alone
patients, pain score = conditions: cited from earlier work
[6] = test system: patients with neuropathic pain associated with diabetic peripheral neuropathy; conditions: diabetic peripheral neuropathy trials; cited from earlier work
[7] = test system: patients with fibromyalgia; conditions: fibromyalgia trials, cited from earlier work
NMDA = conditions: cited from earlier work
μ-opioid = μ-opioid (Homo sapiens, UniProt P35372); conditions: read-out: Binding Constant Ki, μ-opioid; cited from earlier work
Sigma = conditions: read-out: Binding Constant Ki, Sigma; cited from earlier work
[8] = test system: chronic sciatic nerve constriction injury; conditions: chronic sciatic nerve constriction injury in rats; cited from earlier work
5-HT reuptake = 5-HT reuptake (Homo sapiens, UniProt P31645); conditions: read-out: Binding Constant Ki, 5-HT, cited from earlier work
[9] = test system: uptake of norepinephrine (NE), serotonin (5-HT) and dopamine; conditions: cited from earlier work
[10] = test system: α or β adrenergic, muscarinic, histaminergic, and dopaminergic receptors; conditions: cited from earlier work
[11] = test system: patients with postherpetic neuralgia or painful diabetic neuropathy; conditions: oral, cited from earlier work
postoperative patients = conditions: intravenous; 30-mg/kg bolus, 10 mg/kg/h infusion for 48 hours; cited from earlier work
[12] = test system: persons undergoing third molar surgery; conditions: cited from earlier work
[13] = reuptake inhibition; read-out: Binding Constant Ki, NE; cited from earlier work
[14] = read-out: Binding Constant Ki, NMDA
[15] = read-out: Binding Constant Ki, NE; reuptake inhibition; cited from earlier work

Sequence of δ-opioid (P41143 whole entry): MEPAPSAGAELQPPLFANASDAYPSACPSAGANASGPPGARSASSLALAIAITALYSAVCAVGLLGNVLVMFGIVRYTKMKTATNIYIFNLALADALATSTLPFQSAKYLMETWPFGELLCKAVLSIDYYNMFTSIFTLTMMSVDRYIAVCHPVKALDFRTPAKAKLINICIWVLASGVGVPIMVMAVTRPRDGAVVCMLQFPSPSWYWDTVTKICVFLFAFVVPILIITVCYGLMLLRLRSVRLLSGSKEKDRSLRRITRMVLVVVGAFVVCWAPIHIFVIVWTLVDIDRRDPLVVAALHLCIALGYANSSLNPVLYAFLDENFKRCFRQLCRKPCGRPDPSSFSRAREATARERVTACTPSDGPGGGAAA
Sequence of κ-opioid (P41145 whole entry): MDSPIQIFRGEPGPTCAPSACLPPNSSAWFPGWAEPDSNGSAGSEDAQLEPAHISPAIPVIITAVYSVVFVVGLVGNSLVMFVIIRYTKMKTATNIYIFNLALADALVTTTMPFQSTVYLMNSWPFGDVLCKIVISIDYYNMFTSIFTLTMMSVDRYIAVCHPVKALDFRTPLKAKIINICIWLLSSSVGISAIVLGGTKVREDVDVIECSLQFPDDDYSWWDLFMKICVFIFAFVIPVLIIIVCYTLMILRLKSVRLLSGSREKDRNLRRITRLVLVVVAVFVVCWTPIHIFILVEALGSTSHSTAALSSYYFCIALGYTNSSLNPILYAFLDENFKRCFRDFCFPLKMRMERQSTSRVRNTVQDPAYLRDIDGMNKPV
Sequence of NE reuptake (P23975 whole entry): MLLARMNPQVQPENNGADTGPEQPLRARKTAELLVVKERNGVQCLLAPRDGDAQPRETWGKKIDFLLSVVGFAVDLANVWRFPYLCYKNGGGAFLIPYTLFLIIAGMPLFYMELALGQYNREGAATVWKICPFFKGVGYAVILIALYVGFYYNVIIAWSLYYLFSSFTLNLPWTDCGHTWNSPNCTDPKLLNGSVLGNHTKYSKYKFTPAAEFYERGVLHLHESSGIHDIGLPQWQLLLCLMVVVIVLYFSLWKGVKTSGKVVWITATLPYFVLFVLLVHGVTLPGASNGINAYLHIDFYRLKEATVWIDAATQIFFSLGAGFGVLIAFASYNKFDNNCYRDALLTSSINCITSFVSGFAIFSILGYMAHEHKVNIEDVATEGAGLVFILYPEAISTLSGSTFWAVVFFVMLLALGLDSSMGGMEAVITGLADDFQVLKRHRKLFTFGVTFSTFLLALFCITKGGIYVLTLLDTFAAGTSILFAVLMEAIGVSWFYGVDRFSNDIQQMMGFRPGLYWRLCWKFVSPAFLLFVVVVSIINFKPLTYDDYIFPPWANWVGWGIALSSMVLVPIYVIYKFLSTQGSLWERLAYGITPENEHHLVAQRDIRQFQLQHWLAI
Sequence of 5-HT reuptake (P31645 whole entry): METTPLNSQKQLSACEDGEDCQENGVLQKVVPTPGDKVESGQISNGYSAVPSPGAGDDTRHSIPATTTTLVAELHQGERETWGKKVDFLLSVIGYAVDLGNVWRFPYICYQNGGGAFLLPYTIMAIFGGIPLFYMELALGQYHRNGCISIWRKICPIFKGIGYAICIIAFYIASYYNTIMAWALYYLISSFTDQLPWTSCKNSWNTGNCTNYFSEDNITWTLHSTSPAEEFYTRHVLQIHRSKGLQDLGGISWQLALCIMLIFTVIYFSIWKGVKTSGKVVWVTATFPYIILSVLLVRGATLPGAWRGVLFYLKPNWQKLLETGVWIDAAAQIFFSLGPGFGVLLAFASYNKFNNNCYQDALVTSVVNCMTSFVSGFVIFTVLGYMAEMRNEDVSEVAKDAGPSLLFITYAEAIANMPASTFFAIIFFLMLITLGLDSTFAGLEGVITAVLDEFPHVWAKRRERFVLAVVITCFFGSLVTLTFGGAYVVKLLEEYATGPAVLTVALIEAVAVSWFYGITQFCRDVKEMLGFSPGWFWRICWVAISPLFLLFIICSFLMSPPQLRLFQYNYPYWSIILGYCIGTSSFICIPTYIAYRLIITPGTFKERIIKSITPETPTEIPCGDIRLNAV
Sequence of μ-opioid (P35372 whole entry): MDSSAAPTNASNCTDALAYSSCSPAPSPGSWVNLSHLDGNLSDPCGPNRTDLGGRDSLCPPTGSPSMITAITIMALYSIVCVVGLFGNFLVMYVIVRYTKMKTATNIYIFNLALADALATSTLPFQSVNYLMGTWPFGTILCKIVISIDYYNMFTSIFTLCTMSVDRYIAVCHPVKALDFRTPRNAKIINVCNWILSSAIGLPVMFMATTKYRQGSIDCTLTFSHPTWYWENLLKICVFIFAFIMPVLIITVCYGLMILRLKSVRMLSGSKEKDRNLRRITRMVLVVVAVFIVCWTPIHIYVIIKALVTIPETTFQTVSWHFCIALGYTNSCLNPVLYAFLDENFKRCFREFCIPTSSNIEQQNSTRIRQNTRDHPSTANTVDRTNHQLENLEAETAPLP

**Q.** What does the source list for `NCC1(CC(=O)O)CCCCC1` [Gabapentin]?
**A.** Ki (α2δ): 59 nM; cellular uptake of dopamine, noradrenaline, or serotonin [1]: did not alter; Bioavailability ([2]; 900 mg/day given in 3 divided doses): approximately 60%; Bioavailability ([2]; 1200 mg/day given in 3 divided doses): ~47%; Bioavailability ([2]; 2400 mg/day given in 3 divided doses): ~34%; Bioavailability ([2]; 3600 mg/day given in 3 divided doses): ~33%; Bioavailability ([2]; 4800 mg/day given in 3 divided doses): ~27%; apparent volume of distribution ([2]; after 150 mg intravenous administration, Mean±SD): 58 ± 6 L; increase in AUC and Cmax with food ([2]; food effect): 14%; bound to plasma protein ([2]; in vivo): Less than 3%; metabolism in humans ([2]; in vivo): not appreciably metabolized; steady-state predose (Cmin) concentration in cerebrospinal fluid, of corresponding plasma concentration ([2]; patients with epilepsy): approximately 20%; elimination half-life ([2]; unaltered by dose or multiple dosing): 5 to 7 h

**Q.** Which IC50 [3] does the source give for `CN(C)CCCN1c2ccccc2CCc2ccccc21` [imipramine] here?
**A.** ~6000 nM

**Q.** Which results are given for `COc1cccc(C2(O)CCCCC2CN(C)C)c1` (racemic) [(±) Tramadol, (+/−)-trans(RR,SS)-2-[(di-methylamino)methyl]-1-(3-methoxyphenyl)cyclohexanol]?
**A.** Ki (κ-opioid): 42700 nM; Ki (NE reuptake; [13]): 785 nM; Ki (δ-opioid): 57700 nM; duration of the analgesic effect [4]: about 6 hours; reduction in pain [5]: 30-40%

**Q.** Which “endpoint mean pain score (proportion with at least 50% reduction in pain score increased)” value (patients, pain score; 8-week study, 50 and 100 mg three times a day vs placebo) does the source give for `CC(C)C[C@H](CN)CC(=O)O` [pregabalin] here?
**A.** statistically significantly improved

**Q.** And the “endpoint mean pain score (proportion with at least 50% reduction in pain score increased)” value (patients, pain score; 8-week study, 100 or 200 mg three times a day vs placebo, by creatinine clearance)?
**A.** statistically significantly improved

**Q.** What about the “endpoint mean pain score (proportion with at least 50% reduction in pain score increased)” value (patients, pain score; 13-week study, 75, 150, 300 mg twice daily vs placebo, creatinine clearance greater than 60 mL/min, all doses) of the same compound?
**A.** statistically significantly improved

**Q.** And the “endpoint mean pain score (proportion with at least 50% reduction in pain score increased)” value (patients, pain score; 100 and 200 mg three times a day)?
**A.** statistically significantly improved

**Q.** What about the “discontinuation due to dizziness” value [6] of the same compound?
**A.** 3%

**Q.** What about the “discontinuation due to somnolence” value [6] of the same compound?
**A.** 2%

**Q.** What about the “patients discontinued prematurely due to adverse reactions” value [6] of the same compound?
**A.** 9%

**Q.** And the “withdrawal due to asthenia, confusion, and peripheral edema, each” value [6]?
**A.** approximately 1%

**Q.** And the “patients discontinued prematurely due to adverse reactions” value ([7]; 150-600 mg/day)?
**A.** 19%

**Q.** And the “discontinuation due to dizziness” value [7]?
**A.** 6%

**Q.** What about the “discontinuation due to somnolence” value [7] of the same compound?
**A.** 3%

**Q.** What about the “withdrawal due to fatigue, headache, balance disorder, and weight increased, each” value [7] of the same compound?
**A.** approximately 1%

**Q.** With `C[C@]12N[C@H](Cc3ccccc31)c1ccccc12` [MK-801] as the compound, how does the Ki (NMDA; high, read-out: Binding Constant Ki, NMDA (high)) read?
**A.** […]

**Q.** Which results are given for `COc1ccc2c(c1)[C@@]13CCCC[C@H]1[C@@H](C2)N(C)CC3` [Dextromethorphan, (+)-3-methoxy-N-methylmorphinan]?
**A.** Ki (μ-opioid): 1280 nM; Ki (NMDA; [14]): 2910 nM; Ki (Sigma): 365 nM; Ki (δ-opioid): 11500 nM

**Q.** Which Ki (κ-opioid) does the source give for O-desmethyltramadol [(±) M1] here?
**A.** 242 nM

**Q.** And the Ki (NE reuptake; [13])?
**A.** 1520 nM

**Q.** And the Ki (NMDA; [14])?
**A.** > 16000 nM

**Q.** Which “reversing chronic neuropathic pain secondary to thermal hyperalgesia; hyperalgesia of neuropathic pain” value [8] does the source give for `COc1ccc(C(CN(C)C)C2(O)CCCCC2)cc1` (racemic) [Venlafaxine, (R/S)-1-[2-(dimethylamino)-1-(4-methoxyphenyl)ethyl]cyclohexanol] here?
**A.** effective

**Q.** Which results are given for `CN1CC[C@@]23CCCC[C@@H]2[C@@H]1Cc1ccc(O)cc13` [Dextrorphan]?
**A.** Ki (κ-opioid): 5950 nM; Ki (NE reuptake; [15]): 340 nM; Ki (5-HT reuptake; reuptake inhibition): 401 nM; Ki (δ-opioid): 34700 nM

**Q.** Which Ki (κ-opioid) does the source give for `CN1CC[C@]23CCCC[C@H]2[C@H]1Cc1ccc(O)cc13` [Levorphanol] here?
**A.** 4.2 nM

**Q.** And the Ki (NE reuptake; [15])?
**A.** 1210 nM

**Q.** And the Ki (5-HT reuptake)?
**A.** 86.3 nM

**Q.** And the Ki (δ-opioid)?
**A.** 3.61 nM

**Q.** What does the source list for `CCN(CC)C(=O)C1(c2ccccc2)CC1CN` (centres unmarked) [Milnacipran]?
**A.** Ki (NMDA; [14]): 6300 nM; uptake of dopamine [9]: does not affect; affinity for α or β adrenergic, muscarinic, histaminergic, and dopaminergic receptors [10]: no affinity

**Q.** For `CN(C)CCC=C1c2ccccc2CCc2ccccc21` [amitriptyline], which “patients with good or moderate response” value ([11]; painful diabetic neuropathy) is on record?
**A.** three-quarters

**Q.** And the “patients with good or moderate response” value ([11]; postherpetic neuralgia)?
**A.** about two-thirds

**Q.** For `[Mg]` [magnesium], which “use of narcotics in postoperative patients” value (postoperative patients) is on record?
**A.** reduced the use of narcotics

**Q.** With `N[C@@H](Cc1c[nH]c2ccccc12)C(=O)O` [tryptophan] as the compound, how does the “effect on post-operative pain or on the consumption of other analgesics” value [12] read?
**A.** no effect
